Measured values taken from the Kinase Knowledgebase extract (Sharma et al. 2016).

Molecular target: CDK2 (UniProt P24941)
Experiment: Enzyme Assay
Settings: for inhibition: concentration not given here

SMILES	inhibition [%]	Ki [nM]
Nc1nc(Nc2ccc(C(=O)Nc3ccc(Cl)cc3CO)cc2)sc1C(=O)c1c(F)cccc1F	-11	–
COCCN(CCOC)C(=O)c1ccc(Nc2nc(N)c(C(=O)c3c(F)cccc3F)s2)cc1	-4	–
Nc1nc(Nc2ccc(C(=O)N(CCCCO)Cc3ccccc3)cc2)sc1C(=O)c1c(F)cccc1F	0	–
Cc1cccc(Cl)c1NC(=O)c1ccc(Nc2nc(N)c(C(=O)c3c(F)cccc3F)s2)cc1	-12	–
Cc1cccc(CN(C)C(=O)c2ccc(Nc3nc(N)c(C(=O)c4c(F)cccc4F)s3)cc2)n1	-1	–
CN(Cc1ccccc1Cl)C(=O)c1ccc(Nc2nc(N)c(C(=O)c3c(F)cccc3F)s2)cc1	-30	–
Nc1nc(Nc2ccc(C(=O)NCCc3ccncc3)cc2)sc1C(=O)c1c(F)cccc1F	-11	–
Cc1cc(C)cc(NC(=O)c2ccc(Nc3nc(N)c(C(=O)c4c(F)cccc4F)s3)cc2)c1	-3	–
N#CCCN(Cc1cccnc1)C(=O)c1ccc(Nc2nc(N)c(C(=O)c3c(F)cccc3F)s2)cc1	-2	–
COc1ccc(CCN(C)C(=O)c2ccc(Nc3nc(N)c(C(=O)c4c(F)cccc4F)s3)cc2)cc1OC	-3	–
Cc1cc(NC(=O)c2ccc(Nc3nc(N)c(C(=O)c4c(F)cccc4F)s3)cc2)ccc1F	-1	–
Nc1nc(Nc2ccc(C(=O)Nc3ccc(Nc4ccccc4)cc3)cc2)sc1C(=O)c1c(F)cccc1F	-6	–
CN(C)CCCCCCNC(=O)c1ccc(Nc2nc(N)c(C(=O)c3c(F)cccc3F)s2)cc1	-16	–
Cc1ccc(NC(=O)c2ccc(Nc3nc(N)c(C(=O)c4c(F)cccc4F)s3)cc2)c(F)c1	-30	–
Nc1nc(Nc2ccc(C(=O)NCCOCCO)cc2)sc1C(=O)c1c(F)cccc1F	-9	–
COc1ccc(CNC(=O)c2ccc(Nc3nc(N)c(C(=O)c4c(F)cccc4F)s3)cc2)cc1OC	-2	–

SMILES	inhibition [%]	Ki [nM]
Nc1nc(Nc2ccc(C(=O)Nc3ccc(Cl)nc3)cc2)sc1C(=O)c1c(F)cccc1F	-9	–
Nc1nc(Nc2ccc(C(=O)NCCCCCO)cc2)sc1C(=O)c1c(F)cccc1F	-4	–
CCCCN(CCCCO)C(=O)c1ccc(Nc2nc(N)c(C(=O)c3c(F)cccc3F)s2)cc1	-12	–
Nc1nc(Nc2ccc(C(=O)Nc3cccc(Br)c3)cc2)sc1C(=O)c1c(F)cccc1F	-8	–
CCOC(=O)c1ccc(NC(=O)c2ccc(Nc3nc(N)c(C(=O)c4c(F)cccc4F)s3)cc2)cc1	1	–
CC(C)c1cccc(NC(=O)c2ccc(Nc3nc(N)c(C(=O)c4c(F)cccc4F)s3)cc2)c1	-12	–
Nc1nc(Nc2ccc(C(=O)Nc3cccc(OC(F)(F)F)c3)cc2)sc1C(=O)c1c(F)cccc1F	-31	–
COc1ccc(C(=O)NC(=O)c2ccc(Nc3nc(N)c(C(=O)c4c(F)cccc4F)s3)cc2)cc1N	15	–
Nc1nc(Nc2ccc(C(=O)NCCCCCCO)cc2)sc1C(=O)c1c(F)cccc1F	-5	–
N#CCCN(Cc1ccccc1)C(=O)c1ccc(Nc2nc(N)c(C(=O)c3c(F)cccc3F)s2)cc1	0	–
Nc1nc(Nc2ccc(C(=O)N[C@H](CO)CC3CCCCC3)cc2)sc1C(=O)c1c(F)cccc1F	-7	–
Cc1nccc(-c2cccc(NC(=O)c3ccc(Nc4nc(N)c(C(=O)c5c(F)cccc5F)s4)cc3)c2)n1	-40	–
Cc1cc(NC(=O)c2ccc(Nc3nc(N)c(C(=O)c4c(F)cccc4F)s3)cc2)ccc1C(C)C	-5	–
Cc1cccc(NC(=O)c2ccc(Nc3nc(N)c(C(=O)c4c(F)cccc4F)s3)cc2)c1	-7	–
Nc1nc(Nc2ccc(C(=O)NCCCN3CCCC3=O)cc2)sc1C(=O)c1c(F)cccc1F	-23	–

Continued, values first:

inhibition [%]	Ki [nM]	SMILES
-2	–	CN(C(=O)c1ccc(Nc2nc(N)c(C(=O)c3c(F)cccc3F)s2)cc1)C1CCCCC1
-15	–	Nc1nc(Nc2ccc(C(=O)N3CCCC3)cc2)sc1C(=O)c1c(F)cccc1F
-1	–	Nc1nc(Nc2ccc(C(=O)Nc3ccon3)cc2)sc1C(=O)c1c(F)cccc1F
–	20	Cn1cccc1CNC(=O)c1ccc(Nc2nc(N)c(C(=O)c3c(F)cccc3F)s2)cc1
-4	–	Nc1nc(Nc2ccc(C(=O)N3CCOCC3)cc2)sc1C(=O)c1c(F)cccc1F
-3	–	CN(Cc1ccco1)C(=O)c1ccc(Nc2nc(N)c(C(=O)c3c(F)cccc3F)s2)cc1
-5	–	CSCC[C@@H](CO)NC(=O)c1ccc(Nc2nc(N)c(C(=O)c3c(F)cccc3F)s2)cc1
-3	–	CCCN(CC1CC1)C(=O)c1ccc(Nc2nc(N)c(C(=O)c3c(F)cccc3F)s2)cc1
0	–	CN(CC(O)CO)C(=O)c1ccc(Nc2nc(N)c(C(=O)c3c(F)cccc3F)s2)cc1 (stereo not given)
-7	–	CC(CNC(=O)c1ccc(Nc2nc(N)c(C(=O)c3c(F)cccc3F)s2)cc1)N(C)C (stereo not given)
-18	–	C[C@@H](NC(=O)c1ccc(Nc2nc(N)c(C(=O)c3c(F)cccc3F)s2)cc1)C1CCCCC1
-30	–	CCCCC(CC)NC(=O)c1ccc(Nc2nc(N)c(C(=O)c3c(F)cccc3F)s2)cc1 (stereo not given)
-10	–	CCN(C(=O)c1ccc(Nc2nc(N)c(C(=O)c3c(F)cccc3F)s2)cc1)C1CCCCC1
-10	–	CCN(CC)CCN1CCN(C(=O)c2ccc(Nc3nc(N)c(C(=O)c4c(F)cccc4F)s3)cc2)CC1
–	111	C[C@H](CN(C)C)N(C)C(=O)c1ccc(Nc2nc(N)c(C(=O)c3c(F)cccc3F)s2)cc1
-1	–	Nc1nc(Nc2ccc(C(=O)N3CCN(c4ccncc4)CC3)cc2)sc1C(=O)c1c(F)cccc1F
-3	–	CC(C)C(CO)NC(=O)c1ccc(Nc2nc(N)c(C(=O)c3c(F)cccc3F)s2)cc1 (stereo not given)

inhibition [%]	Ki [nM]	SMILES
-14	–	CN(C)CCCN1CCN(C(=O)c2ccc(Nc3nc(N)c(C(=O)c4c(F)cccc4F)s3)cc2)CC1
-43	–	Nc1nc(Nc2ccc(C(=O)N3CCN(CCO)CC3)cc2)sc1C(=O)c1c(F)cccc1F
-7	–	CCCCN(CCO)C(=O)c1ccc(Nc2nc(N)c(C(=O)c3c(F)cccc3F)s2)cc1
-20	–	CC(C)C(C)NC(=O)c1ccc(Nc2nc(N)c(C(=O)c3c(F)cccc3F)s2)cc1 (stereo not given)
-7	–	CC(=O)N[C@@H]1CCN(C(=O)c2ccc(Nc3nc(N)c(C(=O)c4c(F)cccc4F)s3)cc2)C1
-9	–	CCN(CC)CCN(C)C(=O)c1ccc(Nc2nc(N)c(C(=O)c3c(F)cccc3F)s2)cc1
0	–	Nc1nc(Nc2ccc(C(=O)NCC3CC3)cc2)sc1C(=O)c1c(F)cccc1F
-6	–	CCSCCNC(=O)c1ccc(Nc2nc(N)c(C(=O)c3c(F)cccc3F)s2)cc1
-4	–	CCOCCNC(=O)c1ccc(Nc2nc(N)c(C(=O)c3c(F)cccc3F)s2)cc1
-16	–	CC(C)C[C@@H](CO)NC(=O)c1ccc(Nc2nc(N)c(C(=O)c3c(F)cccc3F)s2)cc1
-3	–	CCOC(=O)/C=C/c1ccc(Nc2nc(N)c(C(=O)c3c(F)cccc3F)s2)cc1
-10	–	CC1CN(C(=O)c2ccc(Nc3nc(N)c(C(=O)c4c(F)cccc4F)s3)cc2)CC(C)O1 (stereo not given)
-17	–	CN(C)CCN1CCN(C(=O)c2ccc(Nc3nc(N)c(C(=O)c4c(F)cccc4F)s3)cc2)CC1
-9	–	CN1CCN(C(=O)c2ccc(Nc3nc(N)c(C(=O)c4c(F)cccc4F)s3)cc2)CC1
23	–	Nc1nc(Nc2ccc(O)cc2)sc1C(=O)c1c(F)cccc1F
-1	–	CCCCN(CC#N)C(=O)c1ccc(Nc2nc(N)c(C(=O)c3c(F)cccc3F)s2)cc1
-7	–	COC(CN(C)C(=O)c1ccc(Nc2nc(N)c(C(=O)c3c(F)cccc3F)s2)cc1)OC
